Results from US9062043B2, “Fused tricyclic compounds as serine-threonine protein kinase and PARP modulators” (SENHWA BIOSCIENCES, INC., priority 2006, dated 2015).
Like-named read-outs stand apart in the source and are kept apart here.

Key:
[1] = tested on: MiaPaca human pancreatic carcinoma cells; assay: Cell proliferation assay, Alamar Blue, MiaPaca; assay type: cell-based
Protocol: A representative cell-proliferation assay protocol using Alamar Blue dye (stored at 4° C., use 20 ul per well) is described hereafter.
c. Plate 4,000-5,000 cells per well in 100 μl of medium and seed into a 96-well plate according to the following plate layout. Add cell culture medium only to wells B10 to B12. Wells B1 to B9 have cells but no compound added.
d. Add 100 μl of 2× drug dilution to each well in a concentration shown in the plate layout above. At the same time, add 100 μl of media into the control wells (wells B10 to B12). Total volume is 200 μl/well.
e. Incubate four (4) days at 37° C., 5% CO2 in a humidified incubator.
f. Add 20 μl Alamar Blue reagent to each well.
g. Incubate for four (4) hours at 37° C., 5% CO2 in a humidified incubator.
h. Record fluorescence at an excitation wavelength of 544 nm and emission wavelength of 590 nm using a microplate reader.
In the assays, cells are cultured with a test compound for approximately four days, the dye then is added to the cells and fluorescence of […] dye is detected after approximately four hours. Different types of cells can be utilized in the assays (e.g., HCT-116 human colorectal carcinoma cells, PC-3 human prostatic cancer cells and MiaPaca human pancreatic carcinoma cells). Anti-proliferative effects of representative compounds are provided hereafter.

[2] = tested on: HCT-116 human colorectal carcinoma cells; assay: Cell proliferation assay, Alamar Blue, HCT-116; assay type: cell-based;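 note: cells exposed to compound for about 4 days, then Alamar Blue added and fluorescence read after about 4 h, medium-only wells as control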
PARP = PARP (Homo sapiens (Human), UniProt P09874); assay: PARP assay (chemiluminescent PARP assay kit, Trevigen); assay type: biochemical; details: for inhibition at 20 µM: read-out: PARP % inhib @ 20 uM
Protocol: Modulatory activity of compounds described herein was assessed in vitro in cell-free CK2 assays. Modulatory activity of compounds described herein also are assessed in vitro in cell-free PARP assays. These assays are described hereafter.
PARP assays are conducted using a chemiluminescent PARP assay kit (Trevigen). Briefly, reactions are performed in Histone-coated strip wells, by adding 10 microliters test compound dissolved in 1×PARP Buffer (prepared by mixing 20×PARP buffer diluted with high-purity water) and 15 microliters diluted PARP-HSA enzyme (diluted in 1× PARP buffer, 0.1 unit per well) to 25 microliters PARP cocktail (prepared from 10×PARP cocktail and 10× activated DNA, both 2.5 microliters per well and 20 microliters per well of 1×PARP buffer). The reactions are incubated at ambient temperature for 60 minutes, then the liquid was removed. After washing the wells four times with PBS (200 ul), 50 microliters of STREP-HRP (Horseradish Peroxidase) solution (diluted 500-fold in 1× Strep-Diluent) was added and the reactions were allowed to incubate for 30 minutes at ambient temperature. The liquid was removed and, after washing the wells four times with PBS (200 ul), 50 microliters each of PeroxyGlo A and B (Chemiluminescent Horseradish Peroxidase substrates) are added and the resulting chemiluminescence quantified on the SpectraMax M5 plate reader.

[3] = HCT-116, Table 16, second HCT-116 column
[4] = 1 uM, Table 12, read-out: PARP % inhib @ 1 uM
[5] = at 1 μM, Table 10, read-out: PARP Inhibition %

Sequence of PARP (P09874 whole entry): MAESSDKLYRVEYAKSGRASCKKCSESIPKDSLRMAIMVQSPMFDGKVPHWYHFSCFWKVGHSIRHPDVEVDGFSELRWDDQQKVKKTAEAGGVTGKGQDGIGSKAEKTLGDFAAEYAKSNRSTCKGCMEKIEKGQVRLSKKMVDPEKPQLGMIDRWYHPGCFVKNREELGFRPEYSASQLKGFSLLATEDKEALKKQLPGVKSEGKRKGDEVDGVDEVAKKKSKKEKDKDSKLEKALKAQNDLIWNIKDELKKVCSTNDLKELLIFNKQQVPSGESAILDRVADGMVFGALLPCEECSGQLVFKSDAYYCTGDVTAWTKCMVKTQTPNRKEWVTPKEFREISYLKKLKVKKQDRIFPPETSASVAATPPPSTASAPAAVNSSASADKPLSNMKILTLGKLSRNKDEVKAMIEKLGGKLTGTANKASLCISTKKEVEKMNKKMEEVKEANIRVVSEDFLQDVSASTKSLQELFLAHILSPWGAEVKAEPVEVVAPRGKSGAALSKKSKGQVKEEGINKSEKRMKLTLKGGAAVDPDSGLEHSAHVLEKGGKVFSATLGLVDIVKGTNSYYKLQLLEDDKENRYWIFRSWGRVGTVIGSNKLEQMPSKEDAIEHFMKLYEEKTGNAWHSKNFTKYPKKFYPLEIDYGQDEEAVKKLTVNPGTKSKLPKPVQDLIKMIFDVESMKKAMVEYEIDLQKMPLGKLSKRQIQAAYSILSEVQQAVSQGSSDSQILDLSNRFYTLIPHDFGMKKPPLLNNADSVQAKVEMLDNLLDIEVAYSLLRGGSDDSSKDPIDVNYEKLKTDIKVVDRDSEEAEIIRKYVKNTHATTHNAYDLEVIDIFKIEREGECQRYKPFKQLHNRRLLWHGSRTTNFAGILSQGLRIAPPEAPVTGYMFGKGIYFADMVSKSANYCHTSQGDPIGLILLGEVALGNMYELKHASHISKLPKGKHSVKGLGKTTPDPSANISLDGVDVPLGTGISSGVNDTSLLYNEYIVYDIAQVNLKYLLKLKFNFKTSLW

O=C(O)c1ccc2c(c1)nc(Nc1cccc(I)c1)c1ccsc12
IC50 ([1]; MIA PaCa-2, Table 16): 9.44 µM
IC50 [2, 3]: > 10 µM

CCc1cccc(Nc2nc3cc(C(=O)O)ccc3c3sccc23)c1
IC50 ([1]; MIA PaCa-2, Table 16): > 10 µM
IC50 [2, 3]: > 10 µM

Cc1cccc(Nc2nc3cc(C(=O)O)ccc3c3sccc23)c1
IC50 ([1]; MIA PaCa-2, Table 16): > 10 µM
IC50 [2, 3]: > 10 µM

O=C(O)c1ccc2c(c1)nc(Nc1ccc3cc[nH]c3c1)c1ccsc12
IC50 ([1]; MIA PaCa-2, Table 16): > 10 µM
IC50 [2, 3]: > 10 µM

COC(=O)CNC(=O)c1cccc(Nc2nc3cc(-c4nnn[nH]4)ccc3c3sccc23)c1
IC50 ([1]; MIA PaCa-2, Table 16): > 10 µM
IC50 [2, 3]: > 10 µM

Nc1ncc2c(n1)c(NC1CC1)nc1cc(C(=O)O)ccc12 [drawing 1102]
IC50 ([1]; MIA PaCa-2, Table 18): > 50 µM
IC50 ([2]; HCT-116, Table 18): > 10 µM

O=C(O)c1ccc2c(c1)nc(Nc1cccc(-c3ccccc3)c1)c1ccsc12
IC50 ([1]; MIA PaCa-2, Table 16): > 10 µM

O=C(O)c1ccc2c(c1)nc(Nc1cc(F)cc(Cl)c1)c1ccsc12
IC50 ([1]; MIA PaCa-2, Table 16): > 10 µM
IC50 [2, 3]: > 10 µM

CN(C)CCNC(=O)c1cccc(Nc2nc3cc(-c4nnn[nH]4)ccc3c3sccc23)c1
IC50 ([1]; MIA PaCa-2, Table 16): > 10 µM
IC50 [2, 3]: > 10 µM

O=C(O)c1cc(F)cc(Nc2nc3cc(C(=O)O)ccc3c3sccc23)c1
IC50 ([1]; MIA PaCa-2, Table 16): > 10 µM
IC50 [2, 3]: > 10 µM

Cc1cc(CNC(=O)c2cccc(Nc3nc4cc(-c5nnn[nH]5)ccc4c4sccc34)c2)no1
IC50 ([1]; MIA PaCa-2, Table 16): > 10 µM
IC50 [2, 3]: > 10 µM

Fc1cc(Cl)cc(Nc2nc3cc(-c4nnn[nH]4)ccc3c3sccc23)c1
IC50 ([1]; MIA PaCa-2, Table 16): > 10 µM
IC50 [2, 3]: > 10 µM

O=C(O)c1ccc2c(c1)nc(Nc1ccc(F)c(F)c1)c1ccsc12
IC50 ([1]; MIA PaCa-2, Table 16): > 10 µM
IC50 [2, 3]: 0.83 µM

O=C(O)c1ccc2c(c1)nc(Nc1cccc(Cl)c1F)c1ccsc12
IC50 ([1]; MIA PaCa-2, Table 16): > 10 µM
IC50 [2, 3]: > 10 µM

CN(C)CCNc1nc2cc(C(=O)O)ccc2c2cnc(NC3CC3)nc12 [drawing 1100]
IC50 ([1]; MIA PaCa-2, Table 18): > 50 µM

NS(=O)(=O)c1cccc(Nc2nc3cc(-c4nnn[nH]4)ccc3c3sccc23)c1
IC50 ([1]; MIA PaCa-2, Table 16): > 10 µM
IC50 [2, 3]: > 10 µM

COc1ccccc1NC(=O)c1ccc2c(c1)[nH]c(=O)c1ccsc12
inhibition at 1 µM (PARP; [4]): 0%
inhibition at 20 µM (PARP; Table 12): 24%

COC(=O)CNC(=O)c1ccc2c(c1)[nH]c(=O)c1ccsc12
inhibition at 1 µM (PARP; [4]): 47%
inhibition at 20 µM (PARP; Table 12): 93%

O=C(O)CCNC(=O)c1ccc2c(c1)[nH]c(=O)c1ccsc12
inhibition at 1 µM (PARP; [4]): 35%
inhibition at 20 µM (PARP; Table 12): 95%

COc1ccc(CCNC(=O)c2ccc3c(c2)[nH]c(=O)c2ccsc23)cc1OC
inhibition at 1 µM (PARP; [4]): 15%
inhibition at 20 µM (PARP; Table 12): 67%

NC1CCN(C(=O)c2ccc3c(c2)[nH]c(=O)c2ccsc23)CC1
inhibition at 1 µM (PARP; [4]): 96%
IC50 (PARP; Table 12): 0.02 µM

CCCNC(=O)c1ccc2c(c1)[nH]c(=O)c1ccsc12
inhibition at 1 µM (PARP; [4]): 65%
inhibition at 20 µM (PARP; Table 12): 88%
IC50 (PARP; Table 12): 1 µM

C#Cc1cccc(Nc2nc3cc(-c4nnn[nH]4)ccc3c3sccc23)c1
IC50 ([1]; MIA PaCa-2, Table 16): > 10 µM
IC50 [2, 3]: > 10 µM

COCCNC(=O)c1cccc(Nc2nc3cc(-c4nnn[nH]4)ccc3c3sccc23)c1
IC50 ([1]; MIA PaCa-2, Table 16): > 10 µM
IC50 [2, 3]: > 10 µM

O=C(O)c1cccc(Nc2nc3cc(-c4nnn[nH]4)ccc3c3sccc23)c1
IC50 ([1]; MIA PaCa-2, Table 16): > 10 µM

COC(=O)c1ccc2c(c1)nc(Cl)c1ccsc12 [drawing 552]
inhibition at 1 µM (PARP; [4]): 18%

CC(=O)N1CCN(C(=O)c2ccc3c(c2)[nH]c(=O)c2ccsc23)CC1
inhibition at 1 µM (PARP; [4]): 71%
inhibition at 20 µM (PARP; Table 12): 94%
IC50 (PARP; Table 12): 0.3 µM

O=C(O)c1ccc2c(c1)nc(NCc1cccnc1)c1nc(NC3CC3)ncc12 [drawing 1083]
IC50 ([1]; MIA PaCa-2, Table 18): 13.8 µM
IC50 ([2]; HCT-116, Table 18): > 10 µM

O=c1c2ccccc2c2ccc(-c3nnn[nH]3)cc2n1CCCO
inhibition at 1 µM (PARP; [5]): 33%

COc1cccc(Nc2nc3cc(C(=O)O)ccc3c3sccc23)c1
IC50 ([1]; MIA PaCa-2, Table 16): > 10 µM
IC50 ([2]; HCT-116, Table 16, first HCT-116 column): > 10 µM

COc1ccc(CNC(=O)c2ccc3c(c2)[nH]c(=O)c2ccsc23)cc1
inhibition at 1 µM (PARP; [4]): 45%

CNC(=O)Cc1cccc(Nc2nc3cc(C(=O)O)ccc3c3sccc23)c1
IC50 ([1]; MIA PaCa-2, Table 16): > 10 µM
IC50 [2, 3]: > 10 µM

Fc1cc(F)cc(Nc2nc3cc(-c4nnn[nH]4)ccc3c3sccc23)c1
IC50 ([1]; MIA PaCa-2, Table 16): > 10 µM
IC50 [2, 3]: > 10 µM

O=C(NCc1ccccc1)c1ccc2c(c1)[nH]c(=O)c1ccsc12
inhibition at 1 µM (PARP; [4]): 36%

CN(C)CCNc1nc2cc(C(=O)O)ccc2c2ccccc12
inhibition at 1 µM (PARP; [5]): 15%

O=C(Nc1ccccc1C(=O)O)c1ccc2c(c1)[nH]c(=O)c1ccsc12
inhibition at 1 µM (PARP; [4]): 12%

O=C(NCc1cccnc1)c1ccc2c(c1)[nH]c(=O)c1ccsc12
inhibition at 1 µM (PARP; [4]): 71%

O=c1[nH]c2cc(-c3nn[nH]n3)ccc2c2sccc12
inhibition at 1 µM (PARP; [4]): 39%

COCCNC(=O)c1ccc2c(c1)[nH]c(=O)c1ccsc12
inhibition at 1 µM (PARP; [4]): 65%
inhibition at 20 µM (PARP; Table 12): 93%
IC50 (PARP; Table 12): 0.4 µM

N#Cc1ccc2c(c1)[nH]c(=O)c1ccsc12
inhibition at 1 µM (PARP; [4]): 51%
IC50 (PARP; Table 12): 0.5 µM

COC(=O)c1ccc2c3sccc3c(=O)n(CCCO)c2c1
inhibition at 1 µM (PARP; [4]): 40%

CN(C)C(=O)c1ccc2c(c1)[nH]c(=O)c1ccsc12
inhibition at 1 µM (PARP; [4]): 89%
inhibition at 20 µM (PARP; Table 12): 97%
IC50 (PARP; Table 12): 0.2 µM

O=C(Nc1nccs1)c1ccc2c(c1)[nH]c(=O)c1ccsc12
inhibition at 1 µM (PARP; [4]): 0%
inhibition at 20 µM (PARP; Table 12): 52%

O=C(NC1CC1)c1ccc2c(c1)[nH]c(=O)c1ccsc12
inhibition at 1 µM (PARP; [4]): 69%
inhibition at 20 µM (PARP; Table 12): 90%
IC50 (PARP; Table 12): 0.5 µM

O=C(O)c1ccc2c(c1)[nH]c(=O)c1ccsc12
inhibition at 1 µM (PARP; [4]): 58%
inhibition at 20 µM (PARP; Table 12): 90%
IC50 (PARP; Table 12): 1 µM

CN(C)CCNC(=O)c1ccc2c(c1)[nH]c(=O)c1ccsc12
inhibition at 20 µM (PARP; Table 12): 85%

CC(C)(C)OC(=O)N1CCN(C(=O)c2ccc3c(c2)[nH]c(=O)c2ccsc23)CC1
inhibition at 1 µM (PARP; [4]): 72%
IC50 (PARP; Table 12): 0.3 µM

O=C(NCCc1ccccc1)c1ccc2c(c1)[nH]c(=O)c1ccsc12
inhibition at 1 µM (PARP; [4]): 64%
IC50 (PARP; Table 12): 0.5 µM

O=C(Nc1cccnc1)c1ccc2c(c1)[nH]c(=O)c1ccsc12
inhibition at 1 µM (PARP; [4]): 0%
inhibition at 20 µM (PARP; Table 12): 62%

O=C(O)c1ccc2c(c1)nc(Nc1ccccc1)c1ccccc12
inhibition at 1 µM (PARP; [5]): 9%

O=C(c1ccc2c(c1)[nH]c(=O)c1ccsc12)N1CCNCC1
inhibition at 1 µM (PARP; [4]): 96%
IC50 (PARP; Table 12): 0.03 µM

COC(=O)c1ccc2c(c1)nc(NC1CC1)c1nc(SC)ncc12 [drawing 1099]
IC50 ([1]; MIA PaCa-2, Table 18): > 50 µM

CC(C)(C)OC(=O)CCNC(=O)c1cccc(Nc2nc3cc(-c4nnn[nH]4)ccc3c3sccc23)c1
IC50 ([1]; MIA PaCa-2, Table 16): > 10 µM

O=C(O)c1ccc2c(c1)[nH]c(=O)c1cc(Br)sc12
inhibition at 1 µM (PARP; [4]): 39%
inhibition at 20 µM (PARP; Table 12): 84%

COC(=O)c1ccc2c(c1)[nH]c(=O)c1ccsc12
inhibition at 1 µM (PARP; [4]): 27%
inhibition at 20 µM (PARP; Table 12): 84%

O=C(NCCc1ccccn1)c1ccc2c(c1)[nH]c(=O)c1ccsc12
inhibition at 1 µM (PARP; [4]): 55%
inhibition at 20 µM (PARP; Table 12): 83%
IC50 (PARP; Table 12): 1 µM

CN(C)c1ncc2c(n1)c(Nc1cccc(Cl)c1)nc1cc(C(=O)O)ccc12
IC50 ([1]; MIA PaCa-2, Table 18): > 50 µM
